Target: T1, monoamine oxidase A (MAO-A) (Homo sapiens, UniProt P21397)
T1 construct: gene MAOA; recombinant MAO-A
T1 sequence (P21397 1-527): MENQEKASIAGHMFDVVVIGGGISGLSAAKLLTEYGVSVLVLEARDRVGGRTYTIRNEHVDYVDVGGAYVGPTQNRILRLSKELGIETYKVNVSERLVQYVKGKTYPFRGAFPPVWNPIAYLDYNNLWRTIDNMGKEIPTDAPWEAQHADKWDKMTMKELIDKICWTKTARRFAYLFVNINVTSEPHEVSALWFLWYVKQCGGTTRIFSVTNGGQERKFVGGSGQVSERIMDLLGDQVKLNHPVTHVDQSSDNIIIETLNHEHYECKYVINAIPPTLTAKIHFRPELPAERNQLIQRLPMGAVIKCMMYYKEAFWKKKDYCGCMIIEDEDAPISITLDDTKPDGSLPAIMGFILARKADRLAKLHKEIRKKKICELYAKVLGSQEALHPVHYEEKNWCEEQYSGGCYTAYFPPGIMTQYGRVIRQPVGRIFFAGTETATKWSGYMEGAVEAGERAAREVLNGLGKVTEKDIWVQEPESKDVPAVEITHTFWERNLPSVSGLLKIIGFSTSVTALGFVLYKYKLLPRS
Test: fluorometric Ampliflu Red/HRP assay with tyramine; Lineweaver-Burk kinetics (IC50 also […])
Type: biochemical

S=C(NN=Cc1ccc(Sc2ccc(Cl)cc2)cc1)NC1CCCCC1 [B24, N-Cyclohexyl-2-[4-[(4-chlorophenyl)thio]benzylidene]hydrazine-1-carbothioamide]
Ki: 142 nM
